From ChEMBL document CHEMBL1201862, “PubChem BioAssay data set” (2004)
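48-hour exposure; five concentrations; linearly interpolated endpoints. GI50 is the concentration that inhibits growth by half.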 Active and inactive are the calls of the source. No stated cut-off is given here; in the data, active = GI50 up to about 1.1 µM and inactive = higher.

How the values were obtained:
Assay in all cases: NCI anticancer screen, dose series, 48 h
DU-145 = test system: DU-145
A549 = test system: A549
U-251 = test system: U-251
UO-31 = test system: UO-31
ACHN = test system: ACHN
HCC 2998 = test system: HCC 2998
NCI-H522 = test system: NCI-H522
HT-29 = test system: HT-29
IGROV-1 = test system: IGROV-1
BT-549 = test system: BT-549
EKVX = test system: EKVX
CAKI-1 = test system: CAKI-1
UACC-62 = test system: UACC-62
A498 = test system: A498
HL-60 = test system: HL-60
MCF7 = test system: MCF7
PC-3 = test system: PC-3
NCI/ADR-RES = test system: NCI/ADR-RES

Measured: GI50

S=C(Nc1ccc2c(c1)oc1ccccc12)c1cccs1
inactive: DU-145 40.8 µM | A549 66.7 µM | U-251 30.5 µM | UO-31 > 100 µM | ACHN > 100 µM | HCC 2998 > 100 µM | NCI-H522 20.8 µM | HT-29 3.66 µM | IGROV-1 37.1 µM | BT-549 39.9 µM | EKVX 38.5 µM | CAKI-1 52.8 µM | UACC-62 82.8 µM | A498 > 100 µM | HL-60 > 100 µM | MCF7 24.1 µM | PC-3 > 100 µM | NCI/ADR-RES > 100 µM

O=C1O/C(=C\c2ccccc2)N(c2ccccc2)C1=O
inactive: DU-145 > 100 µM | A549 > 100 µM | U-251 > 100 µM | UO-31 > 100 µM | ACHN > 100 µM | HCC 2998 > 100 µM | NCI-H522 > 100 µM | HT-29 > 100 µM | IGROV-1 > 100 µM | BT-549 > 100 µM | EKVX > 100 µM | CAKI-1 > 100 µM | UACC-62 > 100 µM | A498 > 100 µM | HL-60 > 100 µM | MCF7 51.8 µM | PC-3 > 100 µM | NCI/ADR-RES > 100 µM

COC(=O)C1[C@H](C(=O)OC)C1(Br)CBr (some centres not stated)
inactive: DU-145 > 100 µM | A549 > 100 µM | U-251 > 100 µM | UO-31 > 100 µM | ACHN > 100 µM | HCC 2998 > 100 µM | NCI-H522 8.95 µM | HT-29 > 100 µM | IGROV-1 > 100 µM | BT-549 > 100 µM | EKVX > 100 µM | CAKI-1 > 100 µM | UACC-62 > 100 µM | A498 > 100 µM | HL-60 > 100 µM | MCF7 > 100 µM | PC-3 > 100 µM | NCI/ADR-RES > 100 µM

CC(C)(O)C1COC2=C1C(=O)c1ccccc1C2=O (configuration not stated)
inactive: DU-145 20.9 µM | A549 > 100 µM | U-251 58.5 µM | UO-31 81.1 µM | ACHN 48.2 µM | HCC 2998 > 100 µM | NCI-H522 47.1 µM | HT-29 44.4 µM | IGROV-1 40.6 µM | BT-549 18.2 µM | EKVX 32.3 µM | CAKI-1 60.7 µM | UACC-62 22.9 µM | A498 > 100 µM | HL-60 18.9 µM | MCF7 20.3 µM | PC-3 31.6 µM | NCI/ADR-RES 19.1 µM
